Results taken from patent EP0330025A2, “Antidiabetic composition comprising isocarbacyclin derivative” (TEIJIN LIMITED, priority 1988, dated 1989).

Legend:
[1] = system: GK rats with spontaneous diabetes; assay: Test Example 1: measurement of nerve conduction velocity in GK rats with spontaneous diabetes; format: in vivo; details: for Nerve conduction velocity (m/sec) Before administration: baseline before oral administration
Source text: A test substance, (17S)-17,20-dimethylisocarbacyclin [=(17S)-17,20-dimethyl-9(0)-methano-Δ^6(9α)-prostaglandin I₁] was used to observe any improvement effect on nervous disorder of GK rats with spontaneous diabetes.
(§1) At the test method was to use four groups, i.e., one group of Wistar rats as control, two groups of GK rats with spontaneous diabetes administered by the test substance and one group of the GK rats not administered by the test substance. Before testing, glucose tolerance and nerve conduction velocity were measured. Then the test substance was orally given for 4 weeks (one group at a dose of 30µg/-Kg/day and another group at a dose of 300µg/Kg/day), and the animals were then checked for glucose tolerance and nerve conduction velocity.

[2] = system: GK rats with spontaneous diabetes; assay: Test Example 2: measurement of nerve conduction velocity in GK rats with spontaneous diabetes; format: in vivo; details: for Nerve conduction velocity (m/sec) Before administration / Nerve conduction velocity (m/sec) 4 weeks later: GK rats; for Nerve conduction velocity (m/sec) Before administration: baseline before oral administration
Method: as §1
In similar way to Test Example 1, variations in nerve conduction velocity were measured for (17S)-17,20-dimethylisocarbacyclin methyl ester [=(17S)-17,20-dimethyl-9(0)-methano-Δ^6(9α)-prostaglandin I₁ methyl ester as test substance.

[3] = 300µg/Kg/day orally for 4 weeks

SMILES | Nerve conduction velocity (m/sec) Before administration ([1]; 30µg/Kg/day group) [m/sec] | Nerve conduction velocity (m/sec) 4 weeks later ([1]; 30µg/Kg/day orally for 4 weeks) [m/sec] | Nerve conduction velocity (m/sec) Before administration ([1]; 300µg/Kg/day group) [m/sec] | Nerve conduction velocity (m/sec) 4 weeks later [1, 3] [m/sec] | Nerve conduction velocity (m/sec) Before administration ([2]; 30µg/Kg/day group) [m/sec] | Nerve conduction velocity (m/sec) 4 weeks later ([2]; 30µg/Kg/day orally for 4 weeks) [m/sec] | Nerve conduction velocity (m/sec) Before administration ([2]; 300µg/Kg/day group) [m/sec] | Nerve conduction velocity (m/sec) 4 weeks later [2, 3] [m/sec] | Improvements on nerve conduction velocity ([2]; both groups, 30µg/Kg/day and 300µg/Kg/day, after 4 weeks, in comparison with the control group of GK rats)
CCCC[C@H](C)C[C@H](O)/C=C/[C@@H]1[C@H]2CC(CCCCC(=O)O)=C[C@H]2C[C@H]1O [(17S)-17,20-dimethylisocarbacyclin, (17S)-17,20-dimethyl-9(0)-methano-Δ^6(9α)-prostaglandin I₁] | 33.7 ± 1.2 | 40.5 ± 0.8 | 35.0 ± 0.8 | 42.2 ± 0.9 |  |  |  |  | 
CCCC[C@H](C)C[C@H](O)/C=C/[C@@H]1[C@H]2CC(CCCCC(=O)OC)=C[C@H]2C[C@H]1O [(17S)-17,20-dimethyl-9(0)-methano-Δ^6(9α)-prostaglandin I₁ methyl ester] |  |  |  |  | 30.9 ± 1.0 | 38.1 ± 1.0 | 32.4 ± 0.7 | 37.5 ± 1.4 | Improvements on nerve conduction velocity were observed
